According to publication PMC7571127, “Daurichromenic Acid from the Chinese Traditional Medicinal Plant Rhododendron dauricum Inhibits Sphingomyelin Synthase and Aβ Aggregation” (Molecules, 2020):
pEC50, pIC50: −log10 of the molar value. Like-named read-outs stand apart in the source and are kept apart here.

Key:
SMS1 = target: T1, SMS1 (Homo sapiens, UniProt Q86VZ5); experiment: SMS assay, cell lysate with fluorescent substrate C6-NBD-Cer (SMS1); assay type: biochemical
T1 construct: expressed in transfected cells; host or cells: ZS/SMS1 cells (sonicated lysate)
T1 sequence (Q86VZ5 1-413): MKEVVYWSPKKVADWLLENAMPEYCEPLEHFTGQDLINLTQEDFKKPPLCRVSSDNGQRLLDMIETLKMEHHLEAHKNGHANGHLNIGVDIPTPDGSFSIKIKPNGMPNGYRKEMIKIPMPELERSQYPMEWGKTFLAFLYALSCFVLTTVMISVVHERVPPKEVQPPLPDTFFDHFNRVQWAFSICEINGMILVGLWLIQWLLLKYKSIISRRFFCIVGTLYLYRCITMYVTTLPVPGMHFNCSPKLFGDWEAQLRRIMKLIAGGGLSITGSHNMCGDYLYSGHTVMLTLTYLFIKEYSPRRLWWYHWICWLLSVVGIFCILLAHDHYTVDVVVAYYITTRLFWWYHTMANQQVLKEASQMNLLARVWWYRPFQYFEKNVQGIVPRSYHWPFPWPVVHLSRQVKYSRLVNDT
Procedure: (§1) The ability of DCA and its derivatives to inhibit the SMS isozymes SMS1 and SMS2 was evaluated using a cell lysate assay and the fluorescent substrate C6-NBD (4-nitrobenzo-2-oxa-1,3-diazole)-Cer. […] Thus, the carboxylic acid group of DCAs are essential moieties for their inhibition of SMSs. However, the SMS has not been succeeded in its crystallization. Therefore, a direct comparison with the previously isolated SMS inhibitor ginkgolic acid has been examined. […] Further, a previous report concerning the mode of action for Aβ aggregation inhibition for small molecules gave the insight that the crucial role of a hydrophobic-side hydrocarbon chain and an aromatic ring as well as its two hydrophilic functions causes significant interaction with the amyloid.
(§2) ZS/SMS1 and ZS/SMS2 cells (protein concentration 0.1 µg/µL) were diluted in 20 mM Tris-buffer (pH 7.5) and sonicated. A 1 µL aliquot of each compound at the desired concentration was added to 100 µL aliquots of the cell lysates and the solutions were incubated at 37 °C for 30 min. A 1 µL aliquot of C6-NBD-ceramide was added to each solution and the solutions were incubated for 3 h at 37 °C. The reactions were stopped by addition of 400 µL of MeOH/CHCl3 [1/2 (v/v)], and the mixtures were shaken and centrifuged at 1500 rpm for 5 min. The formation of C6-NBD-sphingomyelin was quantified by HPLC determination of its peak area. Inhibitory activity was quantified by a reverse-phase HPLC assay using a JACSO HPLC system, equipped with a PU-2089 Plus and FP-2020 Plus set at λex = 470 nm and λem = 530 nm. A 50 × 4.6 YMC-Pack Diol-120-NP column (5-µm particle size) was used with the mobile phase (IPA/hexane/water) at a flow rate of 1.0 mL/min
(§3) Figure 1 Inhibition of SMS1 and SMS2 activities by (a) DCA (1), (b) derivative (4), (c) derivative (6) and (d) derivative (7). IC50 values were measured using a cell lysate assay. SMS-expressing cell lysates and compounds were incubated for 3 h at 37 °C, and the extracted fluorescent lipids were directly analyzed by HPLC. Each point represents the mean ± SD of triplicate assays.

SMS2 = target: T2, SMS2 (Homo sapiens, UniProt Q8NHU3); experiment: SMS assay, cell lysate with fluorescent substrate C6-NBD-Cer (SMS2); assay type: biochemical
T2 construct: expressed in transfected cells; host or cells: ZS/SMS2 cells (sonicated lysate)
T2 sequence (Q8NHU3 1-365): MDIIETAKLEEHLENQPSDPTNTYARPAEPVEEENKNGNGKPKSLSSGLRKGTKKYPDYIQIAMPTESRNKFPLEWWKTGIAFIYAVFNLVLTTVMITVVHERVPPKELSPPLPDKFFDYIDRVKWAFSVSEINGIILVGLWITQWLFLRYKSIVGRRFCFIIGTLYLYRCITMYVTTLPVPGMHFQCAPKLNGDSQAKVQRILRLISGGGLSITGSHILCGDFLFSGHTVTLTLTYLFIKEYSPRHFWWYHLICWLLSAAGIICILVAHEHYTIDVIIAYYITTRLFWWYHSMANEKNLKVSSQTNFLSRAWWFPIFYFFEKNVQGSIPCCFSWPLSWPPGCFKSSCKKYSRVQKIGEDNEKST
Procedure: as §1, §2, §3

Aβ42 aggregation [1] = target: T3, Aβ42 aggregation (Homo sapiens, UniProt P05067); experiment: Aβ aggregation inhibition, microtiter-scale high-throughput screening (MSHTS) assay; assay type: biochemical
T3 construct: 30 nM QD-labeled Aβ40 (QDAβ), and 30 μM Aβ42 in PBS
Procedure: Alzheimer’s disease (AD) is a multifactorial disease, which is believed to be caused by complex interactions among several contributing patho-mechanisms. The ability of DCA and its derivatives, along with other natural compounds, ginkgolic acids (8, 9) (Figure 2) and malabaicone A–C (10, 11 and 12), to inhibit Aβ42 aggregation was evaluated by microtiter-scale high-throughput screening (MSHTS) assays. EC50 values were measured from inhibition curves, in which the percent SDs of fluorescence intensities were plotted against the concentration of each compound (Figure 3). Here, 30 nM quantum dot amyloid beta (QDAβ) and 30 µM of Aβ were incubated with different concentrations to evaluate the EC50 of all derivatives. […] The inhibitory activities of the other cyclized DCAs and malabaricones were lower (Figure S2).
The aggregation inhibitory activities of plant extracts, fractions, DCA, DCA derivatives, and naturally occurring SMS inhibitors (compounds 8, 9, and 10) were measured using a modified MSHTS system. Various concentrations of each were incubated with 30 nM QD-labeled Aβ40 (QDAβ), and 30 μM Aβ42 in PBS containing 5% EtOH and 3% DMSO at 37 °C for 24 h in 1536-well plates (782096, Greiner) (Kremsmünster, Austria). The center of each well as viewed with an inverted fluorescence microscope (TE2000, Nikon)) (Tokyo, Japan) equipped with a color CCD camera (DP72, Olympus) (Tokyo, Japan), and the central region of each well were measured with ImageJ software Ver 1.53b (NIH) to determine the standard deviations (SD) of fluorescence intensities of 40,000 pixels (200 × 200 pixels: 320 × 320 μm). The SD values, which were approximately proportional to the amount of aggregates, were plotted against the concentrations of the putative inhibitors to generate inhibition curves, and the EC50 values were determined.
Figure 3 (A) Inhibition of Aβ42 aggregation by DCA, its derivatives, and natural sphingomyelin synthase inhibitors, as shown by incubation of 30 nM QDAβ and 30 µM Aβ with various concentrations of these compounds. (B) Estimation of EC50 values from inhibition curves, in which the percent SDs of fluorescence intensities were plotted against the concentrations of these compounds.

sphingomyelin synthase = experiment: SMS activity, isozyme not specified (abstract value; fractions of Rhododendron dauricum extract); assay type: biochemical; settings: isozyme not stated, read-out: IC50, inhibition of sphingomyelin synthase activity
Aβ42 aggregation [2] = target: T3, Aβ42 aggregation; parameters: method as in PMID 23991168; settings: comparison value; read-out: EC50 of Aβ aggregation inhibition (MSHTS); cited from earlier work
[3] = ZS/SMS1 cell lysate, C6-NBD-ceramide, 3 h at 37 °C, HPLC, read-out: SMS Assay (SMS1) IC50
[4] = ZS/SMS2 cell lysate, C6-NBD-ceramide, 3 h at 37 °C, HPLC, read-out: SMS Assay (SMS2) IC50
[5] = 30 nM QDAβ and 30 µM Aβ42, 37 °C, 24 h, read-out: MHSTS Assay EC50 (inhibition of Aβ42 aggregation)
[6] = ZS/SMS1 cell lysate, C6-NBD-ceramide, 3 h at 37 °C, HPLC
[7] = ZS/SMS2 cell lysate, C6-NBD-ceramide, 3 h at 37 °C, HPLC

T3 sequence (P05067 672-713 limits assumed): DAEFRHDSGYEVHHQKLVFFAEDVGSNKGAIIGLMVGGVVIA

| SMILES | pIC50 (SMS1; [3]) | pIC50 (SMS2; [4]) | pEC50 (Aβ42 aggregation [1]; [5]) | SMS Assay (SMS1) IC50 (SMS1; [6]) | SMS Assay (SMS2) IC50 (SMS2; [7]) | other results |
| --- | --- | --- | --- | --- | --- | --- |
| CC(C)=CCC/C(C)=C/CC[C@@]1(C)C=Cc2c(cc(C)c(C(=O)O)c2O)O1 [Compound 1, Daurichromenic acid] |  |  |  |  |  | pIC50 (SMS1): 5.15; pIC50 (SMS2): 5.40; pEC50 (Aβ42 aggregation [1]): 4.24; pIC50 (sphingomyelin synthase): 5.40 |
| COc1c2c(cc(C)c1C(=O)O)O[C@@](C)(CC/C=C(\C)CCC=C(C)C)C=C2 [Compound 4, (S,E)-2-(4,8-Dimethylnona-3,7-dien-1-yl)-5-methoxy-2,7-dimethyl-2H-chromene-6-carboxylic acid] | 4.77 | 5.00 | 4.13 |  |  |  |
| CCCCCC/C=C\CCCCCCCc1cccc(O)c1C(=O)O [Compound 8, ginkgolic acid, reference compound] | 5.82 | 5.82 | 3.83 |  |  |  |
| O=C(/C=C/c1ccc(O)c(O)c1)O[C@H](Cc1ccc(O)c(O)c1)C(=O)O [rosmarinic acid] |  |  |  |  |  | pEC50 (Aβ42 aggregation [2]): 4.22 |

Second part, led by results:

| pIC50 (SMS1; [3]) | pIC50 (SMS2; [4]) | pEC50 (Aβ42 aggregation [1]; [5]) | SMS Assay (SMS1) IC50 (SMS1; [6]) | SMS Assay (SMS2) IC50 (SMS2; [7]) | SMILES | other results |
| --- | --- | --- | --- | --- | --- | --- |
| 5.40 | 5.30 | 3.62 |  |  | Cc1cc2c(c(O)c1C(=O)O)CC1[C@]3(C)CCCC(C)(C)[C@H]3CC[C@]1(C)O2 (single isomer, unassigned; (-)) [Compound 7, (−) Hongoquercin A] |  |
|  |  |  | inactive | inactive | COC(=O)c1c(C)cc2c(c1O)C=C[C@](C)(CC/C=C(\C)CCC=C(C)C)O2 [Compound 2, Methyl Ester of DCA] |  |
|  |  |  | inactive | inactive | COC(=O)c1c(C)cc2c(c1OC)C=C[C@](C)(CC/C=C(\C)CCC=C(C)C)O2 [Compound 3, Methyl(S,E)-2-(4,8-dimethylnona-3,7-dien-1-yl)-5-methoxy-2,7-dimethyl-2H-chromene-6 carboxylate] |  |
|  |  |  | inactive | inactive | COC(=O)c1c(C)cc2c(c1O)C=C1[C@]3(C)CCCC(C)(C)[C@H]3CC[C@]1(C)O2 [Compound 5, (−)-(5R,8S,10R)-9,15-Didehydro hongoquercin A methyl ester] |  |
| 5.05 | 5.15 |  |  |  | Cc1cc2c(c(O)c1C(=O)O)C=C1[C@]3(C)CCCC(C)(C)[C@H]3CC[C@]1(C)O2 [Compound 6, (−)-(5R,8S,10R)-9,15-Didehydro hongoquercin A] |  |
| 5.70 | 5.70 | 3.53 |  |  | CCCCCCCCCCCCCCCc1cccc(O)c1C(=O)O [Compound 9, ginkgolic acid, reference compound] |  |
